According to article PMC6156078, “Thalidomide promotes degradation of SALL4, a transcription factor implicated in Duane Radial Ray syndrome” (eLife, 2018):

Legend:
[1] = tested on: PPA1; assay: TMT proteomics H9 hESC: PPA1 abundance; type: cell-based, human; details: H9 hES cells, 5 h vs DMSO; thalidomide 10 µM, lenalidomide 5 µM
Text: (§1) We established a mass spectrometry-based workflow (Figure 1—figure supplement 1A) to detect IMiD-induced protein degradation in hESC.
(§2) Proteins were precipitated using methanol/chloroform.

[2] = tested on: HNRNPH1; assay: TMT proteomics H9 hESC: HNRNPH1 abundance; type: cell-based, human; details: H9 hES cells, 5 h vs DMSO; lenalidomide 5 µM
Text: as §1, §2

[3] = tested on: IMiD-dependent neo-substrates; assay: TMT proteomics profiling of IMiD-dependent neo-substrates (hESC, Kelly, SK-N-DZ, MM1s); type: cell-based, human; details: for number of substrates identified (rank order): H9 hESC proteomics; for proteins degraded upon treatment (besides SALL4): H9 hESC, 5 h, 5 µM lenalidomide, 1 µM pomalidomide; for substrates robustly degraded (each drug in addition to the preceding one): proteomics across hESC, MM1s, Kelly, SK-N-DZ cells
Text: as §1, §2

[4] = typical dose 200–400 mg thalidomide, 25 mg lenalidomide, 2 mg pomalidomide, ref Chen et al., 2017, Hoffmann et al., 2013, Teo et al., 2004, cited from earlier work
[5] = tested on: OGDH; assay: TMT proteomics MM1s cells: OGDH abundance; details: 5 h vs DMSO, lenalidomide 5 µM
[6] = tested on: ST14; assay: TMT proteomics MM1s cells: ST14 abundance; details: 5 h vs DMSO, lenalidomide 5 µM
[7] = tested on: HADHA; assay: TMT proteomics MM1s cells: HADHA abundance; details: 5 h vs DMSO, lenalidomide 5 µM
[8] = tested on: DYNC1H1; assay: TMT proteomics Kelly cells: DYNC1H1 abundance; details: 5 h vs DMSO, lenalidomide 5 µM
[9] = target: T1, SALL4 (Homo sapiens, UniProt Q9UJQ4); assay: TMT proteomics H9 hESC: SALL4 abundance; type: cell-based; details: H9 hES cells, 5 h vs DMSO; thalidomide 10 µM, lenalidomide 5 µM, pomalidomide 1 µM
Text: as §1, §2

[10] = target: FAM83F (Homo sapiens, UniProt Q8NEG4); assay: TMT proteomics H9 hESC: FAM83F abundance; type: cell-based; details: H9 hES cells, 5 h vs DMSO; thalidomide 10 µM, lenalidomide 5 µM, pomalidomide 1 µM
Text: as §1, §2

[11] = target: T2, ZBTB39 (Homo sapiens, UniProt O15060+Q96SW2); assay: TMT proteomics H9 hESC: ZBTB39 abundance; type: cell-based; details: H9 hES cells, 5 h vs DMSO; thalidomide 10 µM, lenalidomide 5 µM, pomalidomide 1 µM
Text: as §1, §2

[12] = target: DTWD1 (Homo sapiens, UniProt Q8N5C7+Q96SW2); assay: TMT proteomics H9 hESC: DTWD1 abundance; type: cell-based; details: H9 hES cells, 5 h vs DMSO; thalidomide 10 µM, lenalidomide 5 µM, pomalidomide 1 µM
Text: as §1, §2

[13] = target: T3, VRTN (Homo sapiens, UniProt Q9H8Y1); assay: TMT proteomics H9 hESC: VRTN abundance; type: cell-based; details: H9 hES cells, 5 h vs DMSO; thalidomide 10 µM, pomalidomide 1 µM
T3 construct: endogenous in cells; host or cells: H9 hESC
T3 sequence (Q9H8Y1 whole entry): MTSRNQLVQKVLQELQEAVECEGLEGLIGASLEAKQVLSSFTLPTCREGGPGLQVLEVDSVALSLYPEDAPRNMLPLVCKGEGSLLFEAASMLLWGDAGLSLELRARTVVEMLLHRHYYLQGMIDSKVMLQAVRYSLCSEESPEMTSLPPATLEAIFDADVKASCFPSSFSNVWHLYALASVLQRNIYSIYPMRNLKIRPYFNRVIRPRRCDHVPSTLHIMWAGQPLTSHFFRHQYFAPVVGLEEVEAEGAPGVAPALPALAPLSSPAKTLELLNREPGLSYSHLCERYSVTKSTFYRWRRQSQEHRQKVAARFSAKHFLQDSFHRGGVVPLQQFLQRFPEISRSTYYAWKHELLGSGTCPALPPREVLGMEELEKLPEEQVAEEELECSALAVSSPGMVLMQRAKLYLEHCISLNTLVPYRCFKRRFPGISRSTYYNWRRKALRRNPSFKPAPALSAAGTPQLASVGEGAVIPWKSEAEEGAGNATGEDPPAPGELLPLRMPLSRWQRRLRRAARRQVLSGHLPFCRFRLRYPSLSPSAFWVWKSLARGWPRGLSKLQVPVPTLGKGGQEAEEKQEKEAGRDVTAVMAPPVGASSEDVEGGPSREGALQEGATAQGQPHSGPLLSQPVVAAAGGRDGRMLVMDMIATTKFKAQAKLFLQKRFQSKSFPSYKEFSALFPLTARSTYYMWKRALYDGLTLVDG
Text: as §1, §2

[14] = tested on: SALL4; assay: Western blot of SALL4 in CRBN-/- Kelly and HEK293T cells; type: cell-based, human; details: increasing concentrations, 24 h
[15] = target: hsSALL4ZnF2 / DDB1∆B-CRBN (Homo sapiens, UniProt Q96SW2+Q9UJQ4); assay: TR-FRET IMiD-dependent binding of SALL4ZnF2 to CRBN; details: DDB1∆B-CRBN 200 nM, hsSALL4ZnF2 100 nM
Text: The TR-FRET signal of each data point was extracted by calculating the 520/490 nm ratios.

[16] = target: T4, mmSALL4 (Mus musculus, UniProt Q8BX22); assay: Western blot of mmSALL4 in mouse embryonic stem cells; type: cell-based; details: increasing concentrations, 24 h
T4 construct: endogenous in cells; host or cells: TC1 mouse embryonic stem cells
T4 sequence (Q8BX22 whole entry): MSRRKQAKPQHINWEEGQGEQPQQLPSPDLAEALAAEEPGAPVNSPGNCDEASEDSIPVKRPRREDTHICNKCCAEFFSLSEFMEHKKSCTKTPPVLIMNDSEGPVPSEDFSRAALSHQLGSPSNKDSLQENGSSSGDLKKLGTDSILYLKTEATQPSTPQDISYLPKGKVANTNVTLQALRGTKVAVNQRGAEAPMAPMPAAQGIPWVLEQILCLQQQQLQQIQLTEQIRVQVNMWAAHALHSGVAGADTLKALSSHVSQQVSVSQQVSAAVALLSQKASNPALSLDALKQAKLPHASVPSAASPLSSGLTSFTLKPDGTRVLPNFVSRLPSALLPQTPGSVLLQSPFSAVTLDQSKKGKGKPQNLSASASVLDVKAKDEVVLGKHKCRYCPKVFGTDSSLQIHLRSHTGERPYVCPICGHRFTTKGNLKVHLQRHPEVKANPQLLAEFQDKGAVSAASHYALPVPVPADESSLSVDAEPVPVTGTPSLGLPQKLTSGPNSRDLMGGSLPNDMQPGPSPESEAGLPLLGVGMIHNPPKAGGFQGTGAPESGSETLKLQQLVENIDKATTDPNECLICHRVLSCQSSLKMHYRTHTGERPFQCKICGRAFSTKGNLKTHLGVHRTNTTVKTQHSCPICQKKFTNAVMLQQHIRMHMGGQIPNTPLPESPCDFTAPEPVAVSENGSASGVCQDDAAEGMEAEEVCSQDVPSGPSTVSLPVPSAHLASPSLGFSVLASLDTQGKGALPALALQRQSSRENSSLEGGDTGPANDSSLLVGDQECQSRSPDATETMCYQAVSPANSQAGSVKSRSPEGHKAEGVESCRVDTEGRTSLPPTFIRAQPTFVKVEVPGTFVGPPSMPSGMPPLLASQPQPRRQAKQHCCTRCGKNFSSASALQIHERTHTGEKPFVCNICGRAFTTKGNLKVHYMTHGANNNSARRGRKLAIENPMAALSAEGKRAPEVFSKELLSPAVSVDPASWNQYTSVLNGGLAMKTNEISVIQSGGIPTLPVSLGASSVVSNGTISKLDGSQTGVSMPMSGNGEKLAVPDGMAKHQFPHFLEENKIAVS

[17] = target: T1, SALL4; details: Kelly cells
[18] = target: IKZF1 (Homo sapiens, UniProt Q13422+Q96SW2); assay: TMT proteomics MM1s cells: IKZF1 abundance; details: 5 h vs DMSO, thalidomide 10 µM, lenalidomide 5 µM, pomalidomide 1 µM
[19] = target: IKZF3 (Homo sapiens, UniProt Q96SW2+Q9UKT9); assay: TMT proteomics MM1s cells: IKZF3 abundance; details: 5 h vs DMSO, thalidomide 10 µM, lenalidomide 5 µM, pomalidomide 1 µM
[20] = target: T5, RAB28 (Homo sapiens, UniProt P51157); assay: TMT proteomics MM1s cells: RAB28 abundance; details: 5 h vs DMSO, thalidomide 10 µM, lenalidomide 5 µM, pomalidomide 1 µM
[21] = target: T6, ZFP91 (Homo sapiens, UniProt Q96JP5+Q96SW2); assay: TMT proteomics MM1s cells: ZFP91 abundance; details: 5 h vs DMSO, thalidomide 10 µM, lenalidomide 5 µM, pomalidomide 1 µM
[22] = target: T1, SALL4; assay: TMT proteomics Kelly cells: SALL4 abundance; details: 5 h vs DMSO, thalidomide 10 µM, lenalidomide 5 µM, pomalidomide 1 µM
[23] = tested on: SQRDL; SQOR; assay: TMT proteomics MM1s cells: SQRDL abundance; details: 5 h vs DMSO, pomalidomide 1 µM
[24] = target: T6, ZFP91; assay: TMT proteomics Kelly cells: ZFP91 abundance; details: 5 h vs DMSO, thalidomide 10 µM, lenalidomide 5 µM, pomalidomide 1 µM
[25] = tested on: CLIC4; assay: TMT proteomics Kelly cells: CLIC4 abundance; details: 5 h vs DMSO, pomalidomide 1 µM
[26] = tested on: COX5A; assay: TMT proteomics Kelly cells: COX5A abundance; details: 5 h vs DMSO, pomalidomide 1 µM
[27] = target: GZF1 (Homo sapiens, UniProt Q96SW2+Q9H116); assay: TMT proteomics SK-N-DZ cells: GZF1 abundance; details: 5 h vs DMSO, pomalidomide 1 µM, lenalidomide 5 µM, CC-220 0.1 µM, dBET57 1 µM
[28] = tested on: ARPP19; assay: TMT proteomics Kelly cells: ARPP19 abundance; details: 5 h vs DMSO, pomalidomide 1 µM
[29] = target: T5, RAB28; assay: TMT proteomics SK-N-DZ cells: RAB28 abundance; details: 5 h vs DMSO, pomalidomide 1 µM, lenalidomide 5 µM, CC-220 0.1 µM, dBET57 1 µM
[30] = target: T6, ZFP91; assay: TMT proteomics SK-N-DZ cells: ZFP91 abundance; details: 5 h vs DMSO, pomalidomide 1 µM, lenalidomide 5 µM, CC-220 0.1 µM, dBET57 1 µM
[31] = target: ZNF98 (Homo sapiens, UniProt A6NK75+Q96SW2); assay: TMT proteomics SK-N-DZ cells: ZNF98 abundance; details: 5 h vs DMSO, pomalidomide 1 µM, lenalidomide 5 µM, CC-220 0.1 µM, dBET57 1 µM
[32] = target: T2, ZBTB39; assay: TMT proteomics SK-N-DZ cells: ZBTB39 abundance; details: 5 h vs DMSO, pomalidomide 1 µM, lenalidomide 5 µM, CC-220 0.1 µM, dBET57 1 µM
[33] = tested on: ILF3; assay: Rescue proteomics SK-N-DZ cells: ILF3 abundance; details: 1 µM pomalidomide, 5 h vs DMSO, rescue experiment (source data 13)
[34] = tested on: TLN2; assay: Rescue proteomics SK-N-DZ cells: TLN2 abundance; details: 1 µM pomalidomide, 5 h vs DMSO, rescue experiment (source data 13)
[35] = tested on: RTN4; assay: Rescue proteomics SK-N-DZ cells: RTN4 abundance; details: 1 µM pomalidomide, 5 h vs DMSO, rescue experiment (source data 13)
[36] = tested on: GAP43; assay: Rescue proteomics SK-N-DZ cells: GAP43 abundance; details: 1 µM pomalidomide, 5 h vs DMSO, rescue experiment (source data 13)
[37] = tested on: HIST1H4A; HIST1H4F; HIST1H4D; HIST1H4J; HIST2H4A; HIST2H4B; HIST1H4H; HIST1H4C; HIST4H4; HIST1H4E; HIST1H4I; HIST1H4B; HIST1H4K; HIST1H4L; assay: Rescue proteomics SK-N-DZ cells: histone H4 abundance; details: 1 µM pomalidomide, 5 h vs DMSO, rescue experiment (source data 13)
[38] = target: T1, SALL4; assay: Western blot of SALL4 in Kelly, SK-N-DZ, HEK293T and H661 cells; details: increasing concentrations, 24 h
[39] = target: T1, SALL4; assay: Western blot of SALL4 in H9 hESC; type: cell-based; parameters: endogenous in cells; host or cells: Kelly, H9 hESC, SK-N-DZ cells; details: increasing doses, 24 h

Nc1cccc2c1CN(C1CCC(=O)NC1=O)C2=O (centres unmarked) [lenalidomide]
logFC PPA1 [1]: -0.1919 | logFC HNRNPH1 [2]: 0.1553 | number of substrates identified (rank order) [3]: Thal < Len << Pom | proteins degraded upon treatment (besides SALL4) [3]: CSNK1A1 | substrates robustly degraded (each drug in addition to the preceding one) [3]: ZNF827, FAM83F, and RAB28 along with the lenalidomide-specific substrate CSNK1A1 | plasma half-life (t1/2) [4]: ~ 3 h | logFC OGDH [5]: 0.1359 | logFC ST14 [6]: -0.1872 | logFC HADHA [7]: 0.1826 | logFC DYNC1H1 [8]: 0.04048

Nc1cccc2c1C(=O)N(C1CCC(=O)NC1=O)C2=O (centres unmarked) [pomalidomide]
logFC SALL4 [9]: -1.645 | logFC FAM83F [10]: -1.309 | logFC ZBTB39 [11]: -1.656 | logFC DTWD1 [12]: -1.822 | logFC VRTN [13]: -0.4677 | number of substrates identified (rank order) [3]: Thal < Len << Pom | proteins degraded upon treatment (besides SALL4) [3]: ZFP91 ([An et al., 2017]) and the largely uncharacterized proteins ZBTB39, FAM83F, WIZ, RAB28, and DTWD1 | substrates robustly degraded (each drug in addition to the preceding one) [3]: ZBTB39, ZFP91, DTWD1, and ZNF653 | SALL4 degradation in CRBN-/- cells [14]: no degradation of SALL4 was observed | rank order in binding observed with ZnF2 [15]: Pom >Thal >> Len | degradation of mmSALL4 in mESC [16]: does not promote degradation of mmSALL4 | earliest time of SALL4 degradation post treatment ([17]; 1 or 5 µM pomalidomide): 4 h | time post washout at which SALL4 recovered to levels close to pre-treatment ([17]; pomalidomide 8 h then washout): 48 h | plasma half-life (t1/2) [4]: ~ 9 h | Cmax ([4]; read-out: maximum plasma concentration (Cmax)): 0.05 µM | logFC IKZF1 [18]: -2.094 | logFC IKZF3 [19]: -2.635 | logFC RAB28 [20]: -1.819 | logFC ZFP91 [21]: -1.964 | logFC SALL4 [22]: -1.873 | logFC SQRDL; SQOR [23]: 0.2873 | logFC ZFP91 [24]: -0.9865 | logFC CLIC4 [25]: -0.176 | logFC COX5A [26]: 0.352 | logFC GZF1 [27]: -0.5859 | logFC ARPP19 [28]: 0.611 | logFC RAB28 [29]: -1.455 | logFC ZFP91 [30]: -1.944 | logFC ZNF98 [31]: -1.487 | logFC ZBTB39 [32]: -1.448 | logFC ILF3 [33]: -0.0757 | logFC TLN2 [34]: -0.06109 | logFC RTN4 [35]: -0.1703 | logFC GAP43 [36]: -0.1693 | logFC HIST1H4A (histone H4 genes) [37]: -0.1522 | SALL4 protein levels (western blot) [38]: dose-dependent decrease in SALL4 protein levels | SALL4 protein levels (western blot) [39]: dose-dependent decrease in protein levels
